Measured values published in PMC4584933, “Establishing the pig as a large animal model for vaccine development against human cancer” (Frontiers in Genetics, 2015).

Legend:
SLA-1*07:02 = assay: Peptide-MHC class I complex stability, scintillation proximity assay (SPA); set-up: species or system pig; conditions: biotinylated recombinant SLA heavy chain, 125I-β2m, excess unlabeled β2m, read every 40 min, number only if t1/2 ≥ 0.5 h, '-' = not stably binding
Procedure: (§1) The stability of the selected 198 peptides in complex with relevant SLA class I molecules and β2m was determined using a scintillation proximity assay (SPA), as previously described (Harndahl et al., [2011]). Briefly, biotinylated recombinant MHC class I heavy chains were attached to a streptavidin-coated scintillation microplate together with iodinated (^125I) β2m and candidate peptide resulting in a scintillation signal, which was consecutively measured every 40 min by a scintillation plate counter. The duration of this signal is directly correlated to the stability of the peptide-MHC class I-β2m complex under dissociating conditions and in the presence of excess unlabeled β2m (Harndahl et al., [2011]). Peptides with a half-life ≥ 0.5 h were selected as stable binders.

PBMCs = assay: In vitro peptide stimulation of porcine PBMCs, IFN-γ release assay (ELISA); assay type: cell-based, pig; set-up: key to T cell response: “x” indicates that a response was found to this given peptide at least once; conditions: 5 μg/ml peptide; for T cell response: PBMCs of immunized pigs, 2 × 10^5/well, 67.5–70.0 h, IFN-γ ELISA, response = 2-fold increase vs day -2 and at least 25 pg/ml IFN-γ, found at least once, SLA restriction not included
SLA-2*05:02 = assay: Peptide-MHC class I complex stability, scintillation proximity assay (SPA); set-up: species or system pig; conditions: biotinylated recombinant SLA heavy chain, 125I-β2m, excess unlabeled β2m, read every 40 min, number only if t1/2 ≥ 0.5 h, '-' = not stably binding
Procedure: as §1

SLA-2*04:01 = assay: as above; set-up: species or system pig; conditions: biotinylated recombinant SLA heavy chain, 125I-β2m, excess unlabeled β2m, read every 40 min, number only if t1/2 ≥ 0.5 h, '-' = not stably binding
Procedure: as §1

SLA-3*04:01 = assay: as above; set-up: species or system pig; conditions: biotinylated recombinant SLA heavy chain, 125I-β2m, excess unlabeled β2m, read every 40 min, number only if t1/2 ≥ 0.5 h, '-' = not stably binding
Procedure: as §1

Sequence | Binder (t1/2 ≥ 0.5 h): half-life of peptide-SLA-1*07:02 complex (SLA-1*07:02) | T cell response (PBMCs) | Binder (t1/2 ≥ 0.5 h): half-life of peptide-SLA-2*05:02 complex (SLA-2*05:02) | also measured
NPLEELPHPY [IDO86, porcine IDO-derived 9-11mer peptide] | 5.2 h |  |  | 
DLRQDEHTR [RhoC6, porcine RhoC-derived 9-11mer peptide] |  | x | 0.5 h | 
YHLQIVTKY [IDO134, porcine IDO-derived 9-11mer peptide] | - (t1/2 (hours) is listed for each of the stably binding peptides (t1/2 ≥ 0.5 h)) |  |  | Binder (t1/2 ≥ 0.5 h): half-life of peptide-SLA-2*04:01 complex (SLA-2*04:01): - (t1/2 (hours) is listed for each of the stably binding peptides (t1/2 ≥ 0.5 h))
HPYDAWIAIAK [IDO43, porcine IDO-derived 9-11mer peptide] | - (t1/2 (hours) is listed for each of the stably binding peptides (t1/2 ≥ 0.5 h)) |  |  | 
LSYPDTDVIL [RhoC36, porcine RhoC-derived 9-11mer peptide] |  | x | 0.6 h | 
RPLSYPDTDV [RhoC46, porcine RhoC-derived 9-11mer peptide] | - (t1/2 (hours) is listed for each of the stably binding peptides (t1/2 ≥ 0.5 h)) |  |  | 
MTYKNMDIL [IDO80, porcine IDO-derived 9-11mer peptide] |  |  | - (t1/2 (hours) is listed for each of the stably binding peptides (t1/2 ≥ 0.5 h)) | Binder (t1/2 ≥ 0.5 h): half-life of peptide-SLA-2*04:01 complex (SLA-2*04:01): - (t1/2 (hours) is listed for each of the stably binding peptides (t1/2 ≥ 0.5 h)); Binder (t1/2 ≥ 0.5 h): half-life of peptide-SLA-3*04:01 complex (SLA-3*04:01): - (t1/2 (hours) is listed for each of the stably binding peptides (t1/2 ≥ 0.5 h))
EVEKLATLSI [IDO20, porcine IDO-derived 9-11mer peptide] |  | x | 0.7 h | 
DVILMCFSI [RhoC12, porcine RhoC-derived 9-11mer peptide] |  | x | 5.9 h | 
SPMDNSWKI [IDO119, porcine IDO-derived 9-11mer peptide] | 1.9 h | x |  | 
EPVRSEEGRDM [RhoC20, porcine RhoC-derived 9-11mer peptide] | 0.5 h |  |  | 
YVPTVFENY [RhoC60, porcine RhoC-derived 9-11mer peptide] | - (t1/2 (hours) is listed for each of the stably binding peptides (t1/2 ≥ 0.5 h)) |  |  | Binder (t1/2 ≥ 0.5 h): half-life of peptide-SLA-2*04:01 complex (SLA-2*04:01): - (t1/2 (hours) is listed for each of the stably binding peptides (t1/2 ≥ 0.5 h))
EVKHFCPNV [RhoC23, porcine RhoC-derived 9-11mer peptide] |  | x | 2.0 h | 
EIAAASAIKV [IDO15, porcine IDO-derived 9-11mer peptide] |  | x | 2.6 h | maximum level of secreted IFN-γ (PBMCs; pig 2042 (CASAC), day 12, following 72 h of stimulation, ELISA): 280 pg/mL
SAIKVIPTLF [IDO114, porcine IDO-derived 9-11mer peptide] |  | x | - (t1/2 (hours) is listed for each of the stably binding peptides (t1/2 ≥ 0.5 h)) | Binder (t1/2 ≥ 0.5 h): half-life of peptide-SLA-2*04:01 complex (SLA-2*04:01): 0.5 h
LPNPLEELPH [IDO69, porcine IDO-derived 9-11mer peptide] | - (t1/2 (hours) is listed for each of the stably binding peptides (t1/2 ≥ 0.5 h)) |  |  | 
KLGLPPILVY [IDO55, porcine IDO-derived 9-11mer peptide] | - (t1/2 (hours) is listed for each of the stably binding peptides (t1/2 ≥ 0.5 h)) |  |  | 
KVLPRNIAI [IDO62, porcine IDO-derived 9-11mer peptide] |  |  | - (t1/2 (hours) is listed for each of the stably binding peptides (t1/2 ≥ 0.5 h)) | Binder (t1/2 ≥ 0.5 h): half-life of peptide-SLA-3*04:01 complex (SLA-3*04:01): - (t1/2 (hours) is listed for each of the stably binding peptides (t1/2 ≥ 0.5 h))
PPAHRNFLHSL [IDO98, porcine IDO-derived 9-11mer peptide] | 0.7 h | x |  | 
KGFFLVSLL [IDO49, porcine IDO-derived 9-11mer peptide] |  |  | - (t1/2 (hours) is listed for each of the stably binding peptides (t1/2 ≥ 0.5 h)) | Binder (t1/2 ≥ 0.5 h): half-life of peptide-SLA-3*04:01 complex (SLA-3*04:01): - (t1/2 (hours) is listed for each of the stably binding peptides (t1/2 ≥ 0.5 h))
NSWKIFEEYHI [IDO91, porcine IDO-derived 9-11mer peptide] |  | x | 2.1 h | 
HLVLGYITM [IDO40, porcine IDO-derived 9-11mer peptide] | - (t1/2 (hours) is listed for each of the stably binding peptides (t1/2 ≥ 0.5 h)) |  |  | 
